# Experimental data as given in ChEMBL document CHEMBL1287762, “Synthesis and biological evaluation of 3-[4-(amino/methylsulfonyl)phenyl]methylene-indolin-2-one derivatives as novel COX-1/2 and 5-LOX inhibitors” (Bioorg Med Chem Lett, 2010).
# How the values were obtained:
# [1] = Inhibition of 5-LOX in rabbit peripheral venous blood assessed as formation of […] after 30 mins by HPLC; format: tissue-based, Oryctolagus cuniculus
# [2] = target: T1, Prostaglandin G/H synthase 1 (Oryctolagus cuniculus, UniProt O97554); test: Inhibition of COX-1 in rabbit peripheral venous blood assessed as formation of 12-hydroxyheptadecatrienoic acid after 24 hrs by HPLC in presence of calcium ionophore A23187
# T1 sequence (O97554 whole entry): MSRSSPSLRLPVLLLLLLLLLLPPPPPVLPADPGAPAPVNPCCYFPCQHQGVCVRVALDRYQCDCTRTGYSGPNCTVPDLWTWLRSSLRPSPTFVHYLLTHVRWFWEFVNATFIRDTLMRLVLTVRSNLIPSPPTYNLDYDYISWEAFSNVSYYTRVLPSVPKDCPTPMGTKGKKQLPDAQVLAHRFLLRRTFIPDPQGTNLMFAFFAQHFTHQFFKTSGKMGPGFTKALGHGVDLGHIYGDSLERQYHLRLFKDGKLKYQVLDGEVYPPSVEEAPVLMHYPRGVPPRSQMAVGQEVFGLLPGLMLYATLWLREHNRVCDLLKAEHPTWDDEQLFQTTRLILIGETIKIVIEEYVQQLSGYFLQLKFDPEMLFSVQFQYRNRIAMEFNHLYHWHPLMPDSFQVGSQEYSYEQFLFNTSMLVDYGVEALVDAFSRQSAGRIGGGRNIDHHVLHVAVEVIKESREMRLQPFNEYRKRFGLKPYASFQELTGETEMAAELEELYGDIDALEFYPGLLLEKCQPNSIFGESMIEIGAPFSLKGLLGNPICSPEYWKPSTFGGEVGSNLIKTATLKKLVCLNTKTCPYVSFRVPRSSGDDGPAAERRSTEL
# [3] = target: T2, Prostaglandin G/H synthase 2 (Oryctolagus cuniculus, UniProt O02768); test: Inhibition of COX-2 in rabbit peripheral venous blood assessed as formation of 12-hydroxyheptadecatrienoic acid after 24 hrs in by HPLC presence of calcium ionophore […] and lipopolysaccharide; format: tissue-based
# T2 sequence (O02768 whole entry): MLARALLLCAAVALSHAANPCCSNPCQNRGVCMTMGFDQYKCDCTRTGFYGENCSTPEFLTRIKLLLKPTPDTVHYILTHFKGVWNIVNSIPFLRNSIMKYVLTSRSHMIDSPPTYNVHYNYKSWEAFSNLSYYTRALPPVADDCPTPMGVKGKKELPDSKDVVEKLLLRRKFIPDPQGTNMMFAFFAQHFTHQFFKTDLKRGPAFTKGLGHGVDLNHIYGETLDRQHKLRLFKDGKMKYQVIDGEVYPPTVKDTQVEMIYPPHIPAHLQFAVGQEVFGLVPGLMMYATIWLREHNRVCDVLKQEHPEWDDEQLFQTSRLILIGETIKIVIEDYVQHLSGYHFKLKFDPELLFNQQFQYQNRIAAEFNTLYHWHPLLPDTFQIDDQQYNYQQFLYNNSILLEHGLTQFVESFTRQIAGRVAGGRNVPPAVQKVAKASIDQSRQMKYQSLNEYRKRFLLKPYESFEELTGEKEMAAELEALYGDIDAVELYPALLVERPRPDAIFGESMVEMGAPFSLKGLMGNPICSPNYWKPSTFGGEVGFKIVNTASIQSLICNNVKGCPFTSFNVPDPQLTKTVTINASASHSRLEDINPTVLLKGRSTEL
# [4] = test system: Mus musculus; test: Analgesic activity in BALB/c mouse assessed as inhibition of acetic acid-induced writhing response for 15 mins at 26 mg/kg, po; format: functional; settings: 0.25 h
# [5] = test system: Rattus norvegicus; test: Antiinflammatory activity in Wistar rat assessed as inhibition of carrageenan-induced paw edema at 13 mg/kg, po administered 1 hr before carrageenan challenge measured at 1 hr by plethysmometer; format: functional
# [6] = test system: Rattus norvegicus; test: Ulcerogenic effect in Wistar rat assessed as gastric ulcer area at 13 mg/kg, po administered for 7 days by microscopy; format: toxicity, organism-based, Stomach; set-up: dose 13 mg/kg, route oral; settings: in vivo, 168 h
# [7] = species: Oryctolagus cuniculus; test: Selectivity ratio, IC50 for COX-1in rabbit peripheral venous blood to IC50 for COX-2 in rabbit peripheral venous blood; format: tissue-based
# [8] = test system: Rattus norvegicus; test: Antiinflammatory activity in Wistar rat assessed as inhibition of carrageenan-induced paw edema at 1 mg/kg, po administered 1 hr before carrageenan challenge measured at 3 hrs by plethysmometer; format: functional
# [9] = test system: Rattus norvegicus; test: Antiinflammatory activity in Wistar rat assessed as inhibition of carrageenan-induced paw edema at 13 mg/kg, po administered 1 hr before carrageenan challenge measured at 6 hrs by plethysmometer; format: functional
# [10] = test system: Rattus norvegicus; test: Ulcerogenic effect in Wistar rat assessed as gastric ulcer area at 10.47 mg/kg, po administered for 7 days by microscopy; format: toxicity, organism-based, Stomach; set-up: dose 10.47 mg/kg, route oral; settings: in vivo, 168 h
# [11] = test system: Rattus norvegicus; test: Antiinflammatory activity in Wistar rat assessed as inhibition of carrageenan-induced paw edema at 10.47 mg/kg, po administered 1 hr before carrageenan challenge measured at 3 hrs by plethysmometer; format: functional
# [12] = test system: Rattus norvegicus; test: Antiinflammatory activity in Wistar rat assessed as inhibition of carrageenan-induced paw edema at 10.47 mg/kg, po administered 1 hr before carrageenan challenge measured at 1 hr by plethysmometer; format: functional
# [13] = test system: Rattus norvegicus; test: Antiinflammatory activity in Wistar rat assessed as inhibition of carrageenan-induced paw edema at 10.47 mg/kg, po administered 1 hr before carrageenan challenge measured at 6 hrs by plethysmometer; format: functional
# [14] = test system: Mus musculus; test: Analgesic activity in BALB/c mouse assessed as inhibition of acetic acid-induced writhing response for 15 mins at 20.94 mg/kg, po; format: functional; settings: 0.25 h
# [15] = test system: Rattus norvegicus; test: Antiinflammatory activity in Wistar rat assessed as inhibition of carrageenan-induced paw edema at 9.08 mg/kg, po administered 1 hr before carrageenan challenge measured at 3 hrs by plethysmometer; format: functional
# [16] = test system: Rattus norvegicus; test: Antiinflammatory activity in Wistar rat assessed as inhibition of carrageenan-induced paw edema at 9.08 mg/kg, po administered 1 hr before carrageenan challenge measured at 1 hr by plethysmometer; format: functional
# [17] = test system: Rattus norvegicus; test: Ulcerogenic effect in Wistar rat assessed as gastric ulcer area at 9.08 mg/kg, po administered for 7 days by microscopy; format: toxicity, organism-based, Stomach; set-up: dose 9.08 mg/kg, route oral; settings: in vivo, 168 h
# [18] = test system: Mus musculus; test: Analgesic activity in BALB/c mouse assessed as inhibition of acetic acid-induced writhing response for 15 mins at 18.16 mg/kg, po; format: functional; settings: 0.25 h
# [19] = test system: Rattus norvegicus; test: Antiinflammatory activity in Wistar rat assessed as inhibition of carrageenan-induced paw edema at 9.08 mg/kg, po administered 1 hr before carrageenan challenge measured at 6 hrs by plethysmometer; format: functional
# [20] = test system: Rattus norvegicus; test: Ulcerogenic effect in Wistar rat assessed as gastric ulcer area at 10.12 mg/kg, po administered for 7 days by microscopy; format: toxicity, organism-based, Stomach; set-up: dose 10.12 mg/kg, route oral; settings: in vivo, 168 h
# [21] = test system: Mus musculus; test: Analgesic activity in BALB/c mouse assessed as inhibition of acetic acid-induced writhing response for 15 mins at 20.24 mg/kg, po; format: functional; settings: 0.25 h
# [22] = test system: Rattus norvegicus; test: Antiinflammatory activity in Wistar rat assessed as inhibition of carrageenan-induced paw edema at 10.12 mg/kg, po administered 1 hr before carrageenan challenge measured at 1 hr by plethysmometer; format: functional
# [23] = test system: Rattus norvegicus; test: Antiinflammatory activity in Wistar rat assessed as inhibition of carrageenan-induced paw edema at 10.12 mg/kg, po administered 1 hr before carrageenan challenge measured at 3 hrs by plethysmometer; format: functional
# [24] = test system: Rattus norvegicus; test: Antiinflammatory activity in Wistar rat assessed as inhibition of carrageenan-induced paw edema at 10.12 mg/kg, po administered 1 hr before carrageenan challenge measured at 6 hrs by plethysmometer; format: functional
# [25] = test system: Rattus norvegicus; test: Antiinflammatory activity in Wistar rat assessed as inhibition of carrageenan-induced paw edema at 10.38 mg/kg, po administered 1 hr before carrageenan challenge measured at 6 hrs by plethysmometer; format: functional
# [26] = test system: Rattus norvegicus; test: Ulcerogenic effect in Wistar rat assessed as gastric ulcer area at 10.38 mg/kg, po administered for 7 days by microscopy; format: toxicity, organism-based, Stomach; set-up: dose 10.38 mg/kg, route oral; settings: in vivo, 168 h
# [27] = test system: Mus musculus; test: Analgesic activity in BALB/c mouse assessed as inhibition of acetic acid-induced writhing response for 15 mins at 20.76 mg/kg, po; format: functional; settings: 0.25 h
# [28] = test system: Rattus norvegicus; test: Antiinflammatory activity in Wistar rat assessed as inhibition of carrageenan-induced paw edema at 10.38 mg/kg, po administered 1 hr before carrageenan challenge measured at 3 hrs by plethysmometer; format: functional
# [29] = test system: Rattus norvegicus; test: Antiinflammatory activity in Wistar rat assessed as inhibition of carrageenan-induced paw edema at 10.38 mg/kg, po administered 1 hr before carrageenan challenge measured at 1 hr by plethysmometer; format: functional
smiles,measurement,setting,value
NS(=O)(=O)c1ccc(/C=C2/C(=O)Nc3cc(Cl)ccc32)cc1,IC50,[1],> 50 µM
same,IC50,[2],> 50 µM
same,IC50,[3],> 50 µM
CC(C)(C)c1cc(/C=C2\SC(=N)NC2=O)cc(C(C)(C)C)c1O.CS(=O)(=O)O [DARBUFELONE MESYLATE],IC50,[1],0.61 µM
same,inhibition in vivo at 26 mg/kg,[4],86.2%
same,inhibition in vivo at 13 mg/kg,[5],19.1%
same,Activity,[6],0.87 mm2
same,Ratio IC50,[7],342
same,inhibition in vivo at 1 mg/kg,[8],36.1%
same,inhibition in vivo at 13 mg/kg,[9],17.6%
NS(=O)(=O)c1ccc(/C=C2/C(=O)Nc3ccc([N+](=O)[O-])cc32)cc1,IC50,[1],3.06 µM
same,IC50,[2],0.14 µM
same,Activity,[10],0.12 mm2
same,inhibition in vivo at 10.47 mg/kg,[11],22.2%
same,inhibition in vivo at 10.47 mg/kg,[12],9.52%
same,Ratio IC50,[7],0.04
same,IC50,[3],3.72 µM
same,inhibition in vivo at 10.47 mg/kg,[13],13.7%
same,inhibition in vivo at 20.94 mg/kg,[14],40.8%
CS(=O)(=O)c1ccc(/C=C2/C(=O)Nc3ccc(F)cc32)cc1,IC50,[1],9.42 µM
same,IC50,[2],8.99 µM
same,IC50,[3],> 50 µM
CS(=O)(=O)c1ccc(/C=C2/C(=O)Nc3ccccc32)cc1,IC50,[1],9.51 µM
same,inhibition in vivo at 9.08 mg/kg,[15],38.9%
same,IC50,[2],9.32 µM
same,inhibition in vivo at 9.08 mg/kg,[16],28.6%
same,Activity,[17],0.56 mm2
same,Ratio IC50,[7],1.69
same,inhibition in vivo at 18.16 mg/kg,[18],54.4%
same,IC50,[3],5.52 µM
same,inhibition in vivo at 9.08 mg/kg,[19],21.6%
CS(=O)(=O)c1ccc(/C=C2/C(=O)Nc3ccc(Cl)cc32)cc1,IC50,[1],> 50 µM
same,IC50,[2],> 50 µM
same,Activity,[20],0.88 mm2
same,inhibition in vivo at 20.24 mg/kg,[21],63.3%
same,inhibition in vivo at 10.12 mg/kg,[22],14.3%
same,IC50,[3],3.82 µM
same,inhibition in vivo at 10.12 mg/kg,[23],15.7%
same,inhibition in vivo at 10.12 mg/kg,[24],41.7%
NC(=O)N1C(=O)/C(=C(\O)c2cccs2)c2cc(Cl)ccc21 [TENIDAP],IC50,[1],36.7 µM
same,inhibition in vivo at 10.38 mg/kg,[25],19.6%
same,IC50,[2],2.56 µM
same,Activity,[26],3.75 mm2
same,inhibition in vivo at 20.76 mg/kg,[27],70.4%
same,inhibition in vivo at 10.38 mg/kg,[28],38.9%
same,inhibition in vivo at 10.38 mg/kg,[29],23.8%
Cc1ccc2c(c1)/C(=C\c1ccc(S(C)(=O)=O)cc1)C(=O)N2,IC50,[1],> 50 µM
same,IC50,[2],> 50 µM
same,IC50,[3],> 50 µM
